Data reported in patent publication US20250163119A1, “COMPOUNDS FOR THE TREATMENT OF DIABETES OR OBESITY” (Eli Lilly and Company, priority 2023, published 2025).
Where “and” joins values, the source holds several entries; their conditions need not be identical. Identical values can stand only once. Like-named read-outs stand apart in the source and are kept apart here. *1 amine or outer side, *2 acyl side, *3 side chain or, on linkers, in order; H or OH if unused. Where a SMILES comes first, the peptide text is derived from it. Side-chain parts run from the residue outwards. [ ]: non-standard residue; d: D form. The star is where a group is joined. C20 diacid = O=C(O)CCCCCCCCCCCCCCCCCCC(=O)*; γGlu = O=C(O)[C@H](CCC(=O)[*:2])N[*:1]; NMeI = CC[C@H](C)[C@H](NC)C(=O)O; αMeL = CC(C)C[C@](C)(N)C(=O)O; AEEA = NCCOCCOCC(=O)O; Aib = CC(C)(N)C(=O)O

How the values were obtained:
[1] = Pharmacokinetics in Sprague Dawley rats, single subcutaneous or intravenous dose (incl. 10, 30, 100 nmol/kg dose response); type: in vivo
human CRHR1 = target: T1, human CRHR1 (Homo sapiens, UniProt P34998); experiment: Human CRHR1 cAMP assay (HTRF) in HEK293 cells stably expressing human CRHR1; type: cell-based; details: HEK293 cells overexpressing human CRHR1; relative EC50, maximum 66 nM human UCN1; mean ± SE; read-out: hCRHR1 cAMP EC50 (pM, ± SE)
T1 construct: expressed in transfected cells
T1 sequence (P34998 24-415): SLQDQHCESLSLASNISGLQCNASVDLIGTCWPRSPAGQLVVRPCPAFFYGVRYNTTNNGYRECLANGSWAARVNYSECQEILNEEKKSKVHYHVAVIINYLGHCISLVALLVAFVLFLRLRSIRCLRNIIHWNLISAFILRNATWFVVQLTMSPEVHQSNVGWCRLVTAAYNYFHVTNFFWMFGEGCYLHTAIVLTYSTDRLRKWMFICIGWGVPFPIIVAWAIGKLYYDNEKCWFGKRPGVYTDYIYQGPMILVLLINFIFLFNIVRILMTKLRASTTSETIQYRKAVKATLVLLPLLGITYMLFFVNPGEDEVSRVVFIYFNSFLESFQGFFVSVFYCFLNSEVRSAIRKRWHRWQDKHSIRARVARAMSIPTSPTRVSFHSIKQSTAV
How it was run: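 cAMP (pmol/well) derived from HTRF fluorescence via a standard curve run in each experiment. Cells: HEK293 stably expressing human CRHR1 or CRHR2b; peptides in 1:3 series; CRHR1 1 h 37° C, CRHR2 30 min RT.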

[2] = male, Sprague Dawley, rat, plasma, iv, 196 nmol/kg, single intravenous dose 196 nmol/kg, individual animal
[3] = male, Sprague Dawley, rat, plasma, iv, 196 nmol/kg, single intravenous dose 196 nmol/kg, mean
[4] = male, Sprague Dawley, rat, plasma, sc, 196 nmol/kg, single subcutaneous dose 196 nmol/kg, individual animal
[5] = male, Sprague Dawley, rat, plasma, sc, 196 nmol/kg, single subcutaneous dose 196 nmol/kg, individual animal, read-out: CL/F (converted)
[6] = male, Sprague Dawley, rat, plasma, sc, 196 nmol/kg, single subcutaneous dose 196 nmol/kg, mean
[7] = male, Sprague Dawley, rat, plasma, sc, 196 nmol/kg, single subcutaneous dose 196 nmol/kg, mean, read-out: CL/F (converted)
[8] = male, Sprague Dawley, rat, plasma, sc, 196 nmol/kg, single subcutaneous dose 196 nmol/kg, mean, read-out: Tmax
[9] = rat, plasma, sc, single subcutaneous dose 196 nmol/kg, male Sprague Dawley rats, mean, read-out: AUC0-inf
[10] = rat, plasma, sc, single subcutaneous dose 196 nmol/kg, male Sprague Dawley rats, mean, read-out: Cmax
[11] = rat, plasma, single intravenous dose 196 nmol/kg, male Sprague Dawley rats, mean, read-out: AUC0-inf
[12] = rat, plasma, single intravenous dose 196 nmol/kg, male Sprague Dawley rats, mean, read-out: C0
[13] = single intravenous dose 196 nmol/kg, male Sprague Dawley rats, individual animal
[14] = single subcutaneous dose 196 nmol/kg, male Sprague Dawley rats, individual animal

Row | clearance [1, 2] | half-life [1, 2] | clearance [1, 3] | half-life [1, 3] | half-life [1, 4] | CL/F [1, 5] | half-life [1, 6] | CL/F [1, 7] | Tmax [1, 8] | AUC0-inf [1, 9] | Cmax [1, 10] | AUC0-inf [1, 11] | C0 [1, 12] | CL [1, 13] | T1/2 [1, 13] | CL/F [1, 14] | Structure (SMILES) | AUC0-inf [1, 13] | C0 [1, 13] | AUC0-inf [1, 14] | Cmax [1, 14] | also measured
1 | 3.91 mL/h/kg | 48.4 h | 3.82 mL/h/kg | 45.7 h | 43.8 h | 5.04 mL/h/kg | 39.3 h | 4.47 mL/h/kg | 24 h | 48.1 µM·h | 550 nM | 52.1 µM·h | 1190 nM | 3.23 mL/h/kg and 4.31 mL/h/kg | 49.8 h and 39.0 h | 3.73 mL/h/kg and 4.63 mL/h/kg | CC[C@H](C)[C@H](NC(C)=O)C(=O)N[C@H](C(=O)N[C@H](C(=O)N[C@@H](CO)C(=O)N[C@@](C)(CC(C)C)C(=O)N[C@@H](CC(=O)O)C(=O)N[C@@H](C(=O)N1CCC[C@H]1C(=O)N[C@H](C(=O)NC(C)(C)C(=O)N[C@@](C)(CC(C)C)C(=O)N[C@@H](CC(C)C)C(=O)N[C@@H](CCC(N)=O)C(=O)N[C@H](C(=O)N[C@@H](CCCCN)C(=O)N[C@@H](CC(C)C)C(=O)N[C@@H](CCC(=O)O)C(=O)N[C@@H](CCC(N)=O)C(=O)N[C@@H](CCC(=O)O)C(=O)N[C@@H](CCCNC(=N)N)C(=O)N[C@@H](C)C(=O)N[C@@H](CCC(=O)O)C(=O)N[C@@H](CCCCN)C(=O)N[C@@H](C)C(=O)N[C@@H](CCCNC(=N)N)C(=O)N[C@@H](CCC(N)=O)C(=O)N[C@@H](CCC(N)=O)C(=O)N[C@@H](C)C(=O)N[C@@H](CCCCNC(=O)COCCOCCNC(=O)COCCOCCNC(=O)CC[C@H](NC(=O)CCCCCCCCCCCCCCCCCCC(=O)O)C(=O)O)C(=O)N[C@@H](CCC(=O)O)C(=O)N[C@@H](CC(N)=O)C(=O)N[C@H](C(=O)N[C@@H](CCC(=O)O)C(=O)N[C@H](C(=O)N[C@@H](CC(C)C)C(=O)N[C@@H](C)C(=O)N[C@@H](CCC(N)=O)C(=O)N[C@H](C(N)=O)C(C)C)[C@@H](C)CC)[C@@H](C)O)[C@@H](C)CC)[C@@H](C)O)C(C)C)[C@@H](C)O)C(C)C [SEQ ID NO: 41, Ac-IVTS αMeL D (D-Val) PT Aib αMeL LQIKLEQERAEKARQQAK((2-[2-(2-Amino-ethoxy)-ethoxy]-acetyl)2-γE-CO-(CH2)18-CO2H)ENTEILAQV-NH2] (Ac-IVTS[αMeL]D[dV]PT[Aib][αMeL]LQIKLEQERAEKARQQAK([AEEA-AEEA-γGlu-C20 diacid])ENTEILAQV-NH2) | 50.1 µM·h and 60.6 µM·h and 45.5 µM·h | 1350 nM and 1620 nM and 586 nM | 43.1 µM·h and 56.2 µM·h and 45 µM·h | 467 nM and 645 nM and 539 nM | Tmax ([1]; male, Sprague Dawley, rat, plasma, sc, 196 nmol/kg, single subcutaneous dose 196 nmol/kg, individual animal, read-out: Tmax): 24 h; T1/2 [1, 14]: 36.5 h and 37.7 h; EC50 (human CRHR1): 3.7e+06 pM
2 | 4.72 mL/h/kg | 17.8 h | 4.15 mL/h/kg | 20.4 h | 19.1 h | 11.5 mL/h/kg | 18.4 h | 10.6 mL/h/kg | 18 h | 18.9 µM·h | 394 nM | 47.7 µM·h | 2840 nM | 3.69 mL/h/kg and 4.05 mL/h/kg | 21.7 h and 21.6 h | 8.76 mL/h/kg and 11.4 mL/h/kg | CC[C@H](C)[C@H](NC)C(=O)N[C@H](C(=O)N[C@H](C(=O)N[C@@H](CO)C(=O)N[C@@H](CC(C)C)C(=O)N[C@@H](CC(=O)O)C(=O)N[C@H](C(=O)N1CCC[C@H]1C(=O)N[C@H](C(=O)NCC(=O)N[C@@](C)(CC(C)C)C(=O)N[C@@H](CC(C)C)C(=O)N[C@@H](CCC(N)=O)C(=O)N[C@@H](CCCCN)C(=O)N[C@@H](CC(C)C)C(=O)N[C@H](C(=O)N[C@@H](CCC(=O)O)C(=O)N[C@@H](CCC(N)=O)C(=O)N[C@@H](CCC(=O)O)C(=O)N[C@@H](CCCCN)C(=O)N[C@@H](CCC(N)=O)C(=O)N[C@@H](CCC(=O)O)C(=O)N[C@@H](CCCCN)C(=O)N[C@@H](CCC(=O)O)C(=O)N[C@@H](CCCCN)C(=O)N[C@@H](CCC(N)=O)C(=O)N[C@@H](CCC(N)=O)C(=O)N[C@@H](C)C(=O)N[C@@H](CCCCNC(=O)COCCOCCNC(=O)COCCOCCNC(=O)CC[C@H](NC(=O)CCCCCCCCCCCCCCCCCCC(=O)O)C(=O)O)C(=O)N[C@@H](CCC(=O)O)C(=O)N[C@@H](CC(N)=O)C(=O)N[C@H](C(=O)N[C@@H](CCC(=O)O)C(=O)N[C@H](C(=O)N[C@@H](CC(C)C)C(=O)N[C@@H](C)C(=O)N[C@@H](CCC(N)=O)C(=O)N[C@H](C(N)=O)C(C)C)[C@@H](C)CC)[C@@H](C)O)[C@@H](C)CC)[C@@H](C)CC)C(C)C)[C@@H](C)O)C(C)C [SEQ ID NO: 49, (NMeI) VTSLDVPIG αMeL LQKLIEQEKQEKEKQQAK((2-[2-(2-Amino-ethoxy)-ethoxy]-acetyl)2-γE-CO-(CH2)18-CO2H)ENTEILAQV-NH2] (H-[NMeI]VTSLDVPIG[αMeL]LQKLIEQEKQEKEKQQAK([AEEA-AEEA-γGlu-C20 diacid])ENTEILAQV-NH2) | 41.5 µM·h and 53.1 µM·h and 48.4 µM·h | 2790 nM and 2610 nM and 3110 nM | 17.1 µM·h and 22.4 µM·h and 17.3 µM·h | 340 nM and 474 nM and 367 nM | T1/2 [1, 14]: 16.0 h and 20.2 h; Tmax [1, 14]: 24 h and 6 h; EC50 (human CRHR1): > 1e+07 pM
